Data from the supplement of paper PMC10307832.

Assays:
Experiment in all cases: relative viability (nuclei count vs DMSO), 5 days (fraction); higher = more cells survive
FG-4592 + Pictilisib = compound: Cc1nc(C(=O)NCC(=O)O)c(O)c2ccc(Oc3ccccc3)cc12 [FG-4592] + CS(=O)(=O)N1CCN(Cc2cc3nc(-c4cccc5[nH]ncc45)nc(N4CCOCC4)c3s2)CC1 [Pictilisib] (partner 1 µM)
Summary of the method: (§1)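 Lung cancer cell lines in 1536-well plates got either a single drug or a fixed anchor-drug dose together with five library-drug doses (not always all listed) in √10 steps, by pin tool, on the day after seeding. Nuclei were counted after 5 days, and relative viability is the treated-to-vehicle ratio of nuclei counts. Values are medians of duplicate plates.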

IU1-47 + Foretinib = compound: CC1=CC(=C(N1C2=CC=C(C=C2)Cl)C)C(=O)CN3CCCCC3 [IU1-47] + COc1cc2c(Oc3ccc(NC(=O)C4(C(=O)Nc5ccc(F)cc5)CC4)cc3F)ccnc2cc1OCCCN1CCOCC1 [Foretinib] (partner 0.25 µM)
Summary of the method: as §1

IU1-47 + Crizotinib = compound: CC1=CC(=C(N1C2=CC=C(C=C2)Cl)C)C(=O)CN3CCCCC3 [IU1-47] + C[C@@H](Oc1cc(-c2cnn(C3CCNCC3)c2)cnc1N)c1c(Cl)ccc(F)c1Cl [Crizotinib] (partner 1 µM)
Summary of the method: as §1

IU1-47 + Linsitinib = compound: CC1=CC(=C(N1C2=CC=C(C=C2)Cl)C)C(=O)CN3CCCCC3 [IU1-47] + C[C@]1(O)C[C@@H](c2nc(-c3ccc4ccc(-c5ccccc5)nc4c3)c3c(N)nccn32)C1 [Linsitinib] (partner 1 µM)
Summary of the method: as §1

Row | Cell Line | relative viability (FG-4592 + Pictilisib; first compound 0.08 µM) | relative viability (FG-4592 + Pictilisib; first compound 0.253 µM) | relative viability (FG-4592 + Pictilisib; first compound 0.8 µM) | relative viability (FG-4592 + Pictilisib; first compound 2.53 µM) | relative viability (FG-4592 + Pictilisib; first compound 8 µM) | relative viability (IU1-47 + Foretinib; first compound 0.08 µM) | relative viability (IU1-47 + Foretinib; first compound 0.253 µM) | relative viability (IU1-47 + Foretinib; first compound 0.8 µM) | relative viability (IU1-47 + Foretinib; first compound 2.53 µM) | relative viability (IU1-47 + Foretinib; first compound 8 µM) | relative viability (IU1-47 + Crizotinib; first compound 0.08 µM) | relative viability (IU1-47 + Crizotinib; first compound 0.253 µM) | relative viability (IU1-47 + Crizotinib; first compound 0.8 µM) | relative viability (IU1-47 + Crizotinib; first compound 2.53 µM) | relative viability (IU1-47 + Crizotinib; first compound 8 µM) | relative viability (IU1-47 + Linsitinib; first compound 0.08 µM) | relative viability (IU1-47 + Linsitinib; first compound 0.253 µM) | relative viability (IU1-47 + Linsitinib; first compound 0.8 µM) | relative viability (IU1-47 + Linsitinib; first compound 2.53 µM) | relative viability (IU1-47 + Linsitinib; first compound 8 µM)
1 | NCI-H1993 | 0.834 | 0.774 | 0.854 | 0.851 | 0.66 | 0.84 | 0.76 | 0.735 | 0.843 | 0.748 | 0.928 | 0.84 | 0.965 | 0.85 | 0.864 | 0.762 | 0.732 | 0.749 | 0.76 | 0.73
2 | NCI-H322M | 0.379 | 0.481 | 0.481 | 0.512 | 0.583 | 1.07 | 1.03 | 0.882 | 0.965 | 1.03 | 1.02 | 0.923 | 0.888 | 1.07 | 0.954 | 1 | 0.88 | 1.03 | 0.927 | 0.887
3 | NCI-H838 | 0.481 | 0.396 | 0.363 | 0.494 | 0.433 | 1.12 | 1.07 | 0.981 | 1.06 | 1.11 | 0.858 | 0.895 | 0.844 | 1.03 | 0.669 | 1.07 | 1.07 | 1.12 | 1.09 | 1.07
4 | HARA | 0.329 | 0.292 |  | 0.46 | 0.304 | 1.02 | 1.1 | 1.04 |  | 0.742 | 0.945 | 1.17 | 1.29 | 1.12 | 0.719 | 1.19 | 1.13 | 1.08 | 0.931 | 0.678
5 | NCI-H2342 |  |  |  |  |  | 1.24 | 1.06 | 0.935 | 1.07 | 1.03 |  |  |  |  |  |  |  |  |  | 
6 | NCI-H1792 | 0.296 | 0.248 | 0.279 | 0.246 | 0.318 |  |  |  |  |  | 0.993 | 1.03 | 1.07 | 1.02 | 0.522 | 0.615 | 0.581 | 0.449 | 0.299 | 0.336
7 | ChaGo-K-1 | 0.769 | 0.714 | 0.452 | 0.791 | 0.544 | 0.967 | 0.934 | 0.954 | 0.979 | 0.81 | 1.04 | 1.21 | 1.24 | 1.31 | 0.954 |  |  |  |  | 
8 | HCC-44 | 0.569 | 0.609 | 0.498 | 0.614 | 0.602 |  |  |  |  |  | 0.801 | 0.784 | 0.809 | 0.77 | 0.799 | 0.668 | 0.662 | 0.649 | 0.664 | 0.572
9 | NCI-H1793 | 0.281 | 0.384 |  | 0.228 | 0.354 | 0.75 | 0.764 | 0.765 |  | 0.688 |  |  |  |  |  | 0.822 | 0.868 | 0.976 |  | 0.689
10 | NCI-H1395 | 0.747 | 0.622 |  | 0.776 | 0.531 | 0.944 | 0.895 | 1.12 | 0.939 | 1 |  |  |  |  |  | 1.04 | 1.07 | 0.978 |  | 0.987
11 | SW 900 |  |  |  |  |  | 1.24 | 0.849 | 0.852 | 1.18 | 0.734 |  |  |  |  |  |  |  |  |  | 
